Assay [1] has as its system transected axons from cultured sympathetic neurons. Put plainly: Wallerian degeneration of transected axons in cultured sympathetic ganglia. Particulars: untreated transected axons: early signs 8 hr post-axotomy. In kind it is cell-based, rat. An excerpt: Inhibiting the ubiquitin-proteasome pathway delays Wallerian degeneration. Wallerian degeneration in most transected mammalian nerve fibers is a complex sequence that entails degradation of the axon, changes in the ensheathing and glial cells, alterations in the blood-tissue barriers, and responses of macrophage-lineage cells (reviewed by Griffin et al., 1995). To study the underlying mechanisms involved in the axon degeneration process, we have used the degeneration of transected axons from cultured primary neurons as models (Buckmaster et al., 1995; George et al., 1995; Wang et al., 2001). In cultured sympathetic ganglia derived from postnatal day 3 (p3) rats, soma-deprived axons undergo a typical degenerative process (herein, George et al., 1995; Wang et al., 2001). The severed axons first appear normal for 6-10 hr, depending upon the duration of culturing prior to axotomy. For sympathetic ganglia that have been cultured for 5 days, the severed axons begin to develop such signs of early degeneration as focal swelling and beading approximately 8 hrs after the axons had been separated from their cell bodies. In most cases, the axons would be completely degenerated and detached after 12-16 hr post-axotomy. Similar degenerative processes were also observed in other types of cultured neurons, such as chicken dorsal root ganglion neurons and retinal ganglion cells.
We examined whether UPS is involved in axotomy-triggered Wallerian degeneration by using specific pharmacological inhibitors. It is known that for UPS to degrade a specific substrate protein, the sequential action of three enzymes, including a ubiquitin activating enzyme (E1), a ubiquitin conjugating enzyme (E2), and a ubiquitin ligase (E3), is required to covalently link ubiquitin to the substrate. Poly-ubiquitinated proteins are then targeted for degradation by the 26S proteasome, which is composed of two 19S proteasome regulatory particles and a 20S core. Substrate ubiquitination may also be reversed by ubiquitin proteases (reviewed by Weissman, 2001). In spite of the existence of multiple E2 and E3 molecules, the final and common step in degrading polyubiquitinated protein substrates is through the 26S proteasome machinery. Consistent with previous evidence for the existence and functioning of the UPS in axons (Campbell and Holt, 2001, 2003), components of UPS machinery, such as subunit C2 of the proteasome 20S, were found in both intact and transected axons from sympathetic neurons. Thus, to perturb UPS activity we used two mechanistically different proteasome inhibitors, MG132, a peptide-based reversible proteasome inhibitor (Rock et al., 1994), and lactacystin, a […] irreversible proteasome inhibitor (Fenteany et al., 1995), both of which had been extensively used to inhibit UPS activity in many different cell types including cultured neurons (Campbell and Holt, 2001, 2003).
24 hr post-axotomy when most of the axon debris has detached from the culture surface in control cultures, proteasome inhibitor-treated explants still retained many axons with some degeneration signs, which remained up to 36 hr post-axotomy.
8 hr post-axotomy, approximately 90% of axons from control HSV-infected explants, and only about 40% of axons from HSV-UBP2-infected ones, developed a beading appearance. However, the protective effects of UBP2 overexpression were less robust than those of the proteasome inhibitors, presumably due to the low expression levels of UBP2.
As previous studies have implicated calpains, a class of calcium-dependent proteases, in Wallerian degeneration (George et al., 1995; Finn et al., 2000), we also examined the contribution of calpain activity in our assays with specific calpain inhibitors such as ALLN (Finn et al., 2000). […] 16 hr after axotomy when most of the transected axons from control cultures degenerated into debris, there were still remaining axon fibers in ALLN-treated cultures.

Assay [2] deals with microtubules and neurofilaments of transected axons. Kind of assay: Breakdown of axonal cytoskeleton (microtubules, neurofilaments) in transected axons, immunostaining and Western blotting. In kind it is cell-based, rat. Conditions: transected axons. The text has this:
Microtubule destabilization at the initiation stage of Wallerian degeneration in vitro. We next examined which cellular events might correlate with the involvement of UPS and calpains in Wallerian degeneration. We monitored the integrity of different subcellular organelles in the transected axons by both immunocytochemistry and membrane labeling. […] At the protein level, we observed a corresponding cleavage of the neurofilament subunits, neurofilament 160 (NF-160) and neurofilament 68 (NF68) as detected by Western blotting.
Apart from these axonal markers, however, the earliest detectable change appears to occur in the microtubules of transected axons. […] After 12 hr post-axotomy, the stained signals of fragmented microtubule structures weakened gradually and were replaced by many spheroid bodies in severed axons. By 16 hr after axotomy, almost all of the detected signals were spheroid bodies along the tracts of original axons. Even 16 hrs after axotomy when the majority of the axonal NF160 and NF68 has been degraded, most of the tubulin proteins still remained intact and the protein level remained stable according to Western blotting. To provide additional biochemical evidence for such an axotomy-elicited microtubule destabilization in transected axons at early stages of Wallerian degeneration, we separated monomeric (soluble, S) and polymerized (pellet, P) tubulins from transected axons and measured the depolymerization ratio (S/[S+P]) at different time points.
UPS and calpains mediate the breakdown of axonal cytoskeleton components. To explore the link between these cellular and molecular changes during Wallerian degeneration, we next examined whether proteasome inhibitors, calpain inhibitors, and EGTA affect neurofilaments and microtubules in transected axons. […] On the other hand, ALLN only delayed neurofilament degradation, but not the fragmentation of microtubules.

A further assay relates to transected optic nerve. Kind of assay: Wallerian degeneration of transected optic nerve in vivo (gelfoam at lesion site). Details: species or system mice. Conditions: gelfoam pre-soaked with 50 mM MG132; 3 days post-axotomy; immunostaining. The text has this: MG132 slows down Wallerian degeneration of transected optic nerve in vivo. To assess whether these observations from in vitro culture experiments hold true in vivo, we first performed immunostaining experiments to examine the alterations of microtubules and neurofilaments in transected optic nerves. […] In optic nerves 3 days after axotomy when an antibody against NF160 still detected many linear neurofilament fibers, the antibody against a neuron specific b-tubulin detected largely spheroid bodies, reminiscent of the microtubule changes observed in vitro 16 hr post-axotomy. […] To examine whether proteasome inhibitors would retard Wallerian degeneration in vivo, we applied gelfoams pre-soaked with vehicle (PBS) or MG132 to the lesion sites and examined the transected optic nerves 3 days post-axotomy by immunostaining. Our experimental procedures were adapted from Meyer et al. (1994). In brief, adult mice were anesthetized by an intraperitoneal injection of ketamine (100 mg/kg) and xylazine (20 mg/kg). An incision was then made in the conjunctiva above the left orbit. The optic nerve was exposed under an operating microscope, and its dura opened longitudinally. […] At determined days after nerve crush, the animals were given a lethal dose of anesthesia and perfused through the heart with cold saline plus heparin followed by 4% paraformaldehyde. […]

Peptide text beside a SMILES is read from it. * marks the point of attachment. Cbz = O=C(OCc1ccccc1)*

`CC(C)C[C@@H](C=O)NC(=O)[C@H](CC(C)C)NC(=O)[C@H](CC(C)C)NC(=O)OCc1ccccc1` [MG-132, Carbobenzoxy-L-leucyl-L-leucyl-L-leucinal] (Cbz-Leu-Leu-Leu-aldehyde): the “time post-axotomy until degeneration is shown” value in assay [1] worked out at 16 h. The “degeneration of all examined subcellular markers (destabilization of microtubules and cleavage of neurofilaments)” value in assay [2] is reported as “profoundly retarded”. In the assay on transected optic nerve, the “breakdown of microtubules, neurofilaments and axolemma in transected optic nerves” value is reported as “significantly slowed”.

(Values after patent US7238659B2, “Reducing axon degeneration with proteasome inhibitors” (Children's Medical Center Corporation, priority 2003, dated 2007).)
